Experimental data as given in US10112940B2, “Histone demethylase inhibitors” (Celgene Quanticel Research, Inc., priority 2014, dated 2018).
Like-named read-outs stand apart in the source and are kept apart here. Values belong to the molecule of their own block, whether it stands above or below them.

Experiments:
JMJD2C = JMJD2C (Homo sapiens (Human), UniProt Q9H3R0); experiment: JMJD2C in vitro enzyme inhibition assay (TR-FRET); assay type: biochemical; conditions: 0.3 nM JMJD2C, 300 nM H3K9me3-biotin peptide, 2 μM alpha-ketoglutaric acid, 30 minutes
JMJD2C, sequence (Q9H3R0 2-372): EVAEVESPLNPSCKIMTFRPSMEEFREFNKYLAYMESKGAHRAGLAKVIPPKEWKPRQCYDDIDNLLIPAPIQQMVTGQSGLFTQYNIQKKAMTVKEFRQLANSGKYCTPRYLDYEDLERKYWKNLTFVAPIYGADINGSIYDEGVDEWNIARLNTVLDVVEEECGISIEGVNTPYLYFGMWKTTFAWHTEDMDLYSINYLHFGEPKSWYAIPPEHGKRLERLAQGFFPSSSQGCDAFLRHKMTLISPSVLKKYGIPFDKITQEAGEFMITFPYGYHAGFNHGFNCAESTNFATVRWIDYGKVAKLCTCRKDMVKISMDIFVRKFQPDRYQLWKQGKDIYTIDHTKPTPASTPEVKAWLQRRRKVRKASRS
Experimental: This assay determines the ability of a test compound to inhibit JMJD2C demethylase activity. Baculovirus expressed JMJD2C (GenBank Accession #BC143571, AA 2-372) was purchased from BPS Bioscience (Cat#50105).
The ability of test compounds to inhibit the activity of JMJD2C was determined in 384-well plate format under the following reaction conditions: 0.3 nM JMJD2C, 300 nM H3K9me3-biotin labeled peptide (Anaspec cat #64360), 2 μM alpha-ketoglutaric acid in assay buffer of 50 mM HEPES, pH7.3, 0.005% Brij35, 0.5 mM TCEP, 0.2 mg/ml BSA, 50 μM sodium L-ascorbate, and 2 μM ammonium iron(II) sulfate. Reaction product was determined quantitatively by TR-FRET after the addition of detection reagent Phycolink Streptavidin-allophycocyanin (Prozyme) and Europium-anti-di-methylated histone H3 lysine 9 (H3K9me2) antibody (PerkinElmer) in the presence of 5 mM EDTA in LANCE detection buffer (PerkinElmer) at a final concentration of 50 nM and 1 nM, respectively.
The assay reaction was initiated by the following: 2 μl of the mixture of 900 nM H3K9me3-biotin labeled peptide and 6 μM alpha-ketoglutaric acid with 2 μl of 11-point serial diluted inhibitor in 3% DMSO were added to each well of the plate, followed by the addition of 2 μl of 0.9 nM JMJD2C to initiate the reaction. The reaction mixture was incubated at room temperature for 30 minutes, and terminated by the addition of 6 μl of 5 mM EDTA in LANCE detection buffer containing 100 nM Phycolink Streptavidin-allophycocyanin and 2 nM Europium-anti-H3K9me2 antibody. Plates were read by EnVisionMultilabel Reader in TR-FRET mode (excitation at 320 nm, emission at 615 nm and 665 nm) after 1 hour incubation at room temperature. A ratio was calculated (665/615) for each well and fitted to determine inhibition constant (IC50).
The ability of the compounds disclosed herein to inhibit demethylase activity was quantified and the respective IC50 value was determined. Table 3 provides the IC50 values of various compounds disclosed herein.

[1] = system: KYSE-150 esophageal carcinoma cell line; experiment: In vitro cell-based assay: BrdU incorporation cell proliferation ELISA; parameters: species or system human; conditions: KYSE-150 cells, 168 hours compound incubation, read-out: Cellular IC50
Experimental: Cell lines tested include the JMJD2C gene amplified cell line KYSE-150. This is a quantitative ELISA assay measuring DNA incorporation of BrdU during S-phase as a direct readout of cellular proliferation.
Assay Principle: This is a colorimetric immunoassay for the quantification of cell proliferation. Cells treated for 168 hours with test compounds are assayed for their ability to go through S-phase as a measure of their proliferative potential.
Assay Method: The human KYSE-150 (SMAD4 mut, TP53 mut) esophageal carcinoma cell line was seeded at 2,000 cells/well on a 96-well tissue culture treated plate. After an overnight incubation, cells were treated with compound in an 11-point dilution series with final concentrations ranging from 100 μM to 2 nM. Cells were then incubated in the presence of compound for 168 hours. After compound incubation the cells were assayed using a BrdU Cell Proliferation ELISA (Roche). The cells were first incubated with BrdU labeling reagent for 2 hours. After 2 hours, the BrdU incorporated cells were fixed and denatured, probed with an anti-BrdU-Peroxidase antibody for 1.5 hours and washed. Finally, a tetramethylbenzidine peroxidase substrate was added to each well for 15 minutes followed by a H2SO4 stop solution. The plate was read at 450 nm, and the raw optical density data was transferred into XLFit (IDBS) for IC50 calculation using the formula: fit=(D+((Vmax*(x^n))/((x^n)+(Km^n))))
Table 4 provides the cellular IC50 values of various compounds disclosed herein.

SMILES: CC(C)c1ccc(N(C)c2ccc(Oc3nc(O)c4ccncc4n3)cc2)cc1 [Example 85, 2-[4-(N-methyl-4-propan-2-ylanilino)phenoxy]pyrido[3,4-d]pyrimidin-4-ol]
IC50 (JMJD2C): 1000 to 10000 nM
IC50 ([1]; Homo sapiens): ≤ 100 nM

SMILES: CN(c1ccc(Oc2nc(O)c3ccncc3n2)cc1)c1cncc(N2CCOCC2)c1 [Example 27, 2-{4-[methyl-(5-morpholin-4-yl-pyridin-3-yl)-amino]-phenoxy}-pyrido[3,4-d]pyrimidin-4-ol]
IC50 (JMJD2C): 100 to 1000 nM
IC50 ([1]; Homo sapiens): > 10000 nM

SMILES: CN(c1ccc(Oc2nc(O)c3ccncc3n2)cc1)c1ccc(C(C)(C)C)cc1 [Example 92, 2-[4-(4-tert-butyl-N-methylanilino)phenoxy]pyrido[3,4-d]pyrimidin-4-ol]
IC50 (JMJD2C): 100 to 1000 nM
IC50 ([1]; Homo sapiens): ≤ 100 nM

SMILES: Oc1nc(Oc2ccc3c(ccn3CCc3ccccc3)c2)nc2cnccc12 [Example 3, 2-(1-Phenethyl-1H-indol-5-yloxy)-pyrido[3,4-d]pyrimidin-4-ol]
IC50 (JMJD2C): 100 to 1000 nM
IC50 ([1]; Homo sapiens): 100 to 1000 nM

SMILES: CN(c1ccc(Oc2nc(O)c3ccncc3n2)cc1)c1ccccc1F [Example 96]
IC50 (JMJD2C): 100 to 1000 nM
IC50 [1]: 1000 to 10000 nM

SMILES: CN(Cc1ccccc1)c1ccc(Oc2nc(O)c3ccncc3n2)cc1 [Example 6, 2-[4-(Benzyl-methyl-amino)-phenoxy]-pyrido[3,4-d]pyrimidin-4-ol]
IC50 (JMJD2C): 100 to 1000 nM
IC50 ([1]; Homo sapiens): ≤ 100 nM

SMILES: CN(c1ccc(Oc2nc(O)c3ccncc3n2)cc1)c1cccc(N2CCCC(N)C2)c1 (centres unmarked) [Example 58, 2-[4-[3-(3-aminopiperidin-1-yl)-N-methylanilino]phenoxy]pyrido[3,4-d]pyrimidin-4-ol]
IC50 (JMJD2C): ≤ 100 nM
IC50 ([1]; Homo sapiens): > 10000 nM

SMILES: CN(Cc1ccccc1)c1cccc(Oc2nc(O)c3ccncc3n2)c1 [Example 9, 2-[3-(Benzyl-methyl-amino)-phenoxy]-pyrido[3,4-d]pyrimidin-4-ol]
IC50 (JMJD2C): 1000 to 10000 nM

SMILES: Cc1cccc(N(C)c2ccc(Oc3nc(O)c4ccncc4n3)cc2)c1 [Example 21, 2-[4-(Methyl-m-tolyl-amino)-phenoxy]-pyrido[3,4-d]pyrimidin-4-ol]
IC50 (JMJD2C): 100 to 1000 nM

SMILES: CN(CC1CCCc2ccccc21)c1ccc(Oc2nc(O)c3ccncc3n2)cc1 (centres unmarked) [Example 28, 2-{4-[methyl-(1,2,3,4-tetrahydro-naphthalen-1-ylmethyl)-amino]-phenoxy}-pyrido[3,4-d]pyrimidin-4-ol]
IC50 (JMJD2C): ≤ 100 nM

SMILES: COc1ccc(N(C)c2ccc(Oc3nc(O)c4ccncc4n3)cc2)cc1 [Example 16, 2-{4-[(4-Methoxy-phenyl)-methyl-amino]-phenoxy}-pyrido[3,4-d]pyrimidin-4-ol]
IC50 (JMJD2C): 100 to 1000 nM

SMILES: Oc1nc(Oc2ccc3c(c2)CCCN3c2ccccc2)nc2cnccc12 [Example 33, 2-(1-phenyl-1,2,3,4-tetrahydro-quinolin-6-yloxy)-pyrido[3,4-d]pyrimidin-4-ol]
IC50 (JMJD2C): 1000 to 10000 nM

SMILES: CC(C)c1ccc(N(c2ccc(Oc3nc(O)c4ccncc4n3)cc2)C2CCOCC2)cc1 [Example 118, 2-(4-((4-isopropylphenyl)(tetrahydro-2H-pyran-4-yl)amino)phenoxy)pyrido[3,4-d]pyrimidin-4-ol]
IC50 (JMJD2C): 100 to 1000 nM

SMILES: Oc1nc(Oc2ccc(N3CCCC(c4ccccc4)C3)cc2)nc2cnccc12 (centres unmarked) [Example 25, 2-[4-(3-phenyl-piperidin-1-yl)-phenoxy]-pyrido[3,4-d]pyrimidin-4-ol]
IC50 (JMJD2C): 100 to 1000 nM

SMILES: Oc1nc(Oc2ccc3ccn(Cc4ccccc4)c3c2)nc2cnccc12 [Example 8, 2-(1-Benzyl-1H-indol-6-yloxy)-pyrido[3,4-d]pyrimidin-4-ol]
IC50 (JMJD2C): 1000 to 10000 nM

The next lines start with the values.

IC50 (JMJD2C): 1000 to 10000 nM
IC50 ([1]; Homo sapiens): ≤ 100 nM
SMILES: CC(c1ccc(N(C)c2ccc(Oc3nc(O)c4ccncc4n3)cc2)cc1)C1CC1 (centres unmarked) [Example 39, 2-(4-{[4-(1-cyclopropyl-ethyl)-phenyl]-methyl-amino}-phenoxy)-pyrido[3,4-d]pyrimidin-4-ol]

IC50 (JMJD2C): 100 to 1000 nM
SMILES: CC(C)c1cccc(N(C)c2ccc(Oc3nc(O)c4ccncc4n3)cc2)c1 [Example 93, 2-[4-(N-methyl-3-propan-2-ylanilino)phenoxy]pyrido[3,4-d]pyrimidin-4-ol]

IC50 (JMJD2C): 100 to 1000 nM
IC50 ([1]; Homo sapiens): > 10000 nM
SMILES: CN(c1ccc(C#N)cc1)c1ccc(Oc2nc(O)c3ccncc3n2)cc1 [Example 81, 4-[4-(4-hydroxypyrido[3,4-d]pyrimidin-2-yl)oxy-N-methylanilino]benzonitrile]

IC50 (JMJD2C): ≤ 100 nM
IC50 ([1]; Homo sapiens): > 10000 nM
SMILES: CNCCC(C)c1ccc(N(C)c2ccc(Oc3nc(O)c4ccncc4n3)cc2)cc1 (centres unmarked) [Example 72, 2-[4-[N-methyl-4-[4-(methylamino)butan-2-yl]anilino]phenoxy]pyrido[3,4-d]pyrimidin-4-ol]

IC50 (JMJD2C): 100 to 1000 nM
IC50 ([1]; Homo sapiens): 100 to 1000 nM
SMILES: CN(c1ccccc1)c1ccc(Oc2nc(O)c3ccncc3n2)cc1 [Example 5, 2-[4-(Methyl-phenyl-amino)-phenoxy]-pyrido[3,4-d]pyrimidin-4-ol]

IC50 (JMJD2C): 1000 to 10000 nM
IC50 ([1]; Homo sapiens): ≤ 100 nM
SMILES: CN(c1ccc(OCC(C)(C)C)cc1)c1ccc(Oc2nc(O)c3ccncc3n2)cc1 [Example 75, 2-[4-[4-(2,2-dimethylpropoxy)-N-methylanilino]phenoxy]pyrido[3,4-d]pyrimidin-4-ol]

IC50 (JMJD2C): 100 to 1000 nM
SMILES: CN(c1ccc(Oc2nc(O)c3ccncc3n2)cc1)c1ccc(N2CCOCC2)cc1 [Example 18, 2-{4-[Methyl-(4-morpholin-4-yl-phenyl)-amino]-phenoxy}-pyrido[3,4-d]pyrimidin-4-ol]

IC50 (JMJD2C): 100 to 1000 nM
SMILES: Oc1nc(Oc2ccc3nn(Cc4ccccc4)cc3c2)nc2cnccc12 [Example 14, 2-[2-Benzyl-2H-indazol-5-yloxy]pyridino[3,4-d]pyrimidin-4-ol]

IC50 (JMJD2C): 100 to 1000 nM
SMILES: Oc1nc(Oc2ccc3cnn(Cc4ccccc4)c3c2)nc2cnccc12 [Example 11, 2-(1-Benzyl-1H-indazol-6-yloxy)-pyrido[3,4-d]pyrimidin-4-ol]

IC50 (JMJD2C): 100 to 1000 nM
SMILES: CC(C)c1ccc(N(C)c2ccc(Oc3nc(O)c4ccncc4n3)cc2)cc1N1CCOCC1 [Example 35, 2-{4-[(4-isopropyl-3-morpholin-4-yl-phenyl)-methyl-amino]-phenoxy}-pyrido[3,4-d]pyrimidin-4-ol]

IC50 (JMJD2C): 100 to 1000 nM
SMILES: CN(c1ccccc1)c1ccc(Oc2nc(O)c3ccncc3n2)cc1F [Example 10, 2-[3-Fluoro-4-(methyl-phenyl-amino)-phenoxy]-pyrido[3,4-d]pyrimidin-4-ol]

IC50 (JMJD2C): 100 to 1000 nM
SMILES: CC(C)c1ccc(N(CC(F)(F)F)c2ccc(Oc3nc(O)c4ccncc4n3)cc2)cc1 [Example 114, 2-{4-[(4-isopropyl-phenyl)-(2,2,2-trifluoro-ethyl)-amino]-phenoxy}-pyrido[3,4-d]pyrimidin-4-ol]

IC50 (JMJD2C): 100 to 1000 nM
SMILES: Cc1ccc(N(C)c2ccc(Oc3nc(O)c4ccncc4n3)cc2)cc1 [Example 20, 2-[4-(Methyl-p-tolyl-amino)-phenoxy]-pyrido[3,4-d]pyrimidin-4-ol]

IC50 (JMJD2C): 1000 to 10000 nM
SMILES: Oc1nc(Oc2ccc3c(ccn3C3CCCC3)c2)nc2cnccc12 [Example 31, 2-(1-cyclopentyl-1H-indol-5-yloxy)-pyrido[3,4-d]pyrimidin-4-ol]

IC50 (JMJD2C): 100 to 1000 nM
SMILES: CC(C)Cc1ccc(N(C)c2ccc(Oc3nc(O)c4ccncc4n3)cc2)cc1 [Example 63, 2-[4-[N-methyl-4-(2-methylpropyl)anilino]phenoxy]pyrido[3,4-d]pyrimidin-4-ol]

IC50 (JMJD2C): ≤ 100 nM
SMILES: CC(C)c1ccc(N(C)c2ccc(Oc3nc(O)c4ccncc4n3)cc2)nc1 [Example 34, 2-{4-[(5-isopropyl-pyridin-2-yl)-methyl-amino]-phenoxy}-pyrido[3,4-d]pyrimidin-4-ol]

IC50 (JMJD2C): 100 to 1000 nM
SMILES: COc1cccc(N(C)c2ccc(Oc3nc(O)c4ccncc4n3)cc2)c1 [Example 17, 2-{4-[(3-Methoxy-phenyl)-methyl-amino]-phenoxy}-pyrido[3,4-d]pyrimidin-4-ol]
